Tests used:
Experiment in all cases: biochemical
Type in all cases: biochemical
382 unique human kinases [1] = target: T1, 382 unique human kinases (Homo sapiens, UniProt P30530); settings: kinase AXL, compound 10 uM; for remaining activity at 10 µM: read-out: % Enzyme Activity (relative to DMSO controls)
T1 construct: purchased Reaction Biology (HotSpot contract assay)
T1 sequence (P30530 26-894): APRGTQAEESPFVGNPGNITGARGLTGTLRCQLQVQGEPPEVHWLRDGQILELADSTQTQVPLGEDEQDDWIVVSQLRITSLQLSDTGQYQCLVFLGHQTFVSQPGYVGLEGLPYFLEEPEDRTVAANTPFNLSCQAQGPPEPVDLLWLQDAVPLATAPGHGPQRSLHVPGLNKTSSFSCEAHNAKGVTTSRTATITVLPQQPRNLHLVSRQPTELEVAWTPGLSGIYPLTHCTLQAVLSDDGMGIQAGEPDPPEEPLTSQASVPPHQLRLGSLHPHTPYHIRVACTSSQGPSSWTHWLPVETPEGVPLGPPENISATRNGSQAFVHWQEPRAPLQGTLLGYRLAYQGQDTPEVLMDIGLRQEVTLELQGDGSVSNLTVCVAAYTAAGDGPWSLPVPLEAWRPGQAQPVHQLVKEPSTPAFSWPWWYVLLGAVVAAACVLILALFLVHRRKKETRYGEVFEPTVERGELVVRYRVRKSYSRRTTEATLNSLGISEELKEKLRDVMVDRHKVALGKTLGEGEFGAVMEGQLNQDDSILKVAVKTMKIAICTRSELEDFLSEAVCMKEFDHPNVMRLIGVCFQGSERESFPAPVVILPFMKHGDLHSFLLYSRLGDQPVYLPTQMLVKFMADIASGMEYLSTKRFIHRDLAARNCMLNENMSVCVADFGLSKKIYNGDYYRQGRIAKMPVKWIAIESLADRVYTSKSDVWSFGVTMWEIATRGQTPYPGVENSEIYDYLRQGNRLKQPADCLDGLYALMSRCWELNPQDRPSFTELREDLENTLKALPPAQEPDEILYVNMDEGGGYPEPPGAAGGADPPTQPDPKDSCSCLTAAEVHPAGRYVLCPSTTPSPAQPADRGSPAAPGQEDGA

382 unique human kinases [2] = target: T2, 382 unique human kinases (Homo sapiens, UniProt Q9UM73, F1174L); settings: ALK (F1174L), 10 uM; for remaining activity at 10 µM: read-out: % Enzyme Activity (relative to DMSO controls)
T2 construct: purchased Reaction Biology (HotSpot contract assay)

382 unique human kinases [3] = target: T3, 382 unique human kinases (Homo sapiens, UniProt Q13976); settings: PKG1a, 10 uM; for remaining activity at 10 µM: read-out: % Enzyme Activity (relative to DMSO controls)
T3 construct: purchased Reaction Biology (HotSpot contract assay)
T3 sequence (Q13976 1-671): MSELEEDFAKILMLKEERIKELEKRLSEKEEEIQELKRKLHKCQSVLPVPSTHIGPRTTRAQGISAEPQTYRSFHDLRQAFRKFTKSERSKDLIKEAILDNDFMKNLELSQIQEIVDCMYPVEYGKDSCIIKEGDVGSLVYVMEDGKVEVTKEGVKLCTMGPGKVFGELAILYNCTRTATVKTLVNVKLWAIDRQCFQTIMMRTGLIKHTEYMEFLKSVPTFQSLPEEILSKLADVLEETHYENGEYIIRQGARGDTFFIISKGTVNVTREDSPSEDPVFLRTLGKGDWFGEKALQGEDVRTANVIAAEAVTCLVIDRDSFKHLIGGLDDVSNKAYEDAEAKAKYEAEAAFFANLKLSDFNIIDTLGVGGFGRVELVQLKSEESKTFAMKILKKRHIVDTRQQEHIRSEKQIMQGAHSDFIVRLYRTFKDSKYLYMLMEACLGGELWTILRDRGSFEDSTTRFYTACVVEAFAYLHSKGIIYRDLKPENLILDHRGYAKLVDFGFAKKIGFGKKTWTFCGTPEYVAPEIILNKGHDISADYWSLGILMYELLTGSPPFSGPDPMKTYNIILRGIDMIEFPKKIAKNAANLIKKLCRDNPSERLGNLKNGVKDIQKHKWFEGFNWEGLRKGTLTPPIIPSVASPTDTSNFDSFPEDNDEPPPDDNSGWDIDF

382 unique human kinases [4] = target: T4, 382 unique human kinases (Homo sapiens, UniProt P16234, D842V); settings: PDGFRa (D842V), [ATP] 1 µM, compound 10 uM; for remaining activity at 10 µM: read-out: % Enzyme Activity (relative to DMSO controls)
T4 construct: purchased Reaction Biology (HotSpot contract assay)

382 unique human kinases [5] = target: T5, 382 unique human kinases (Homo sapiens, UniProt Q9H2K8); settings: TAOK3/JIK, 10 uM; for remaining activity at 10 µM: read-out: % Enzyme Activity (relative to DMSO controls)
T5 construct: purchased Reaction Biology (HotSpot contract assay)
T5 sequence (Q9H2K8 1-898): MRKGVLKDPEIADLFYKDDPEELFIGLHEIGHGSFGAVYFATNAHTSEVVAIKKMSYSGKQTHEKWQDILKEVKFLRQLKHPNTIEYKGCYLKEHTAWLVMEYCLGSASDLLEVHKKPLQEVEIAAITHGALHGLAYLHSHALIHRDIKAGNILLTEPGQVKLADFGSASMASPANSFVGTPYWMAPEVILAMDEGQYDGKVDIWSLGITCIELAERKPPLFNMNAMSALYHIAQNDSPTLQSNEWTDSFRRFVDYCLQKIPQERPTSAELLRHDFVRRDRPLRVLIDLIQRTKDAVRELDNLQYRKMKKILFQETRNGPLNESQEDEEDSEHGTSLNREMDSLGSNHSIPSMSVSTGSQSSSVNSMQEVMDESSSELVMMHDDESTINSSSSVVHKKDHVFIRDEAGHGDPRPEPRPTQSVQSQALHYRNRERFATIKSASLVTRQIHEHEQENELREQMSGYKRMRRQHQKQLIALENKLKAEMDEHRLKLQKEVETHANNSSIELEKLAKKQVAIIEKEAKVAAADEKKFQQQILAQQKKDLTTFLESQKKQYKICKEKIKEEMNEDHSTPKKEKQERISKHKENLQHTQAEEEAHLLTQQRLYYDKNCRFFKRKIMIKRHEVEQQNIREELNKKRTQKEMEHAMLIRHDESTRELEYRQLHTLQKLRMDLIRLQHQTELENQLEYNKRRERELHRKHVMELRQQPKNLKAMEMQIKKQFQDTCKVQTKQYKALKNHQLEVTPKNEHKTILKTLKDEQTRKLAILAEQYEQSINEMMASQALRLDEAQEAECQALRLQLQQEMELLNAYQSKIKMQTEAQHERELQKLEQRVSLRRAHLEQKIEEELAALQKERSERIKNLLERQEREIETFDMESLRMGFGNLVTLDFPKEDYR

382 unique human kinases [6] = target: T6, 382 unique human kinases (Homo sapiens, UniProt Q9NQU5); settings: PAK6, 10 uM; for remaining activity at 10 µM: read-out: % Enzyme Activity (relative to DMSO controls)
T6 construct: purchased Reaction Biology (HotSpot contract assay)
T6 sequence (Q9NQU5 whole entry): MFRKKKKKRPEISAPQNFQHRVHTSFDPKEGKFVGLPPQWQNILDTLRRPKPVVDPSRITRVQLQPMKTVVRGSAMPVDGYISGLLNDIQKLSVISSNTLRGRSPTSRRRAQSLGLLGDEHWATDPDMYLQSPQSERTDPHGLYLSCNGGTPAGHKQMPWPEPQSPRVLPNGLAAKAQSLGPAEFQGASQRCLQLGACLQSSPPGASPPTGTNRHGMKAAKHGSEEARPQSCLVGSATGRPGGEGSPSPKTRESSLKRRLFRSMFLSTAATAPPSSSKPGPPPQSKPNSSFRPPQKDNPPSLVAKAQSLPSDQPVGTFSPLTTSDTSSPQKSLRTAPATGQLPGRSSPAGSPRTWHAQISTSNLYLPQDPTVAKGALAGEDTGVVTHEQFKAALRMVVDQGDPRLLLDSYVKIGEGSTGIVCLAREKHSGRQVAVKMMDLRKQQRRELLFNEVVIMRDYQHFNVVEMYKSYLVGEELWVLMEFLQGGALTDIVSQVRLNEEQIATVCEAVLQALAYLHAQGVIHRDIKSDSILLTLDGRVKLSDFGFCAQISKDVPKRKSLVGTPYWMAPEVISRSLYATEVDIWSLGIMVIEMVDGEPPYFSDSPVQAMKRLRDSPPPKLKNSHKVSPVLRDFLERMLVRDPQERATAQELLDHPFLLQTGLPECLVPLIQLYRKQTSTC

T2 sequence (Q9UM73 19-1620 F1174L): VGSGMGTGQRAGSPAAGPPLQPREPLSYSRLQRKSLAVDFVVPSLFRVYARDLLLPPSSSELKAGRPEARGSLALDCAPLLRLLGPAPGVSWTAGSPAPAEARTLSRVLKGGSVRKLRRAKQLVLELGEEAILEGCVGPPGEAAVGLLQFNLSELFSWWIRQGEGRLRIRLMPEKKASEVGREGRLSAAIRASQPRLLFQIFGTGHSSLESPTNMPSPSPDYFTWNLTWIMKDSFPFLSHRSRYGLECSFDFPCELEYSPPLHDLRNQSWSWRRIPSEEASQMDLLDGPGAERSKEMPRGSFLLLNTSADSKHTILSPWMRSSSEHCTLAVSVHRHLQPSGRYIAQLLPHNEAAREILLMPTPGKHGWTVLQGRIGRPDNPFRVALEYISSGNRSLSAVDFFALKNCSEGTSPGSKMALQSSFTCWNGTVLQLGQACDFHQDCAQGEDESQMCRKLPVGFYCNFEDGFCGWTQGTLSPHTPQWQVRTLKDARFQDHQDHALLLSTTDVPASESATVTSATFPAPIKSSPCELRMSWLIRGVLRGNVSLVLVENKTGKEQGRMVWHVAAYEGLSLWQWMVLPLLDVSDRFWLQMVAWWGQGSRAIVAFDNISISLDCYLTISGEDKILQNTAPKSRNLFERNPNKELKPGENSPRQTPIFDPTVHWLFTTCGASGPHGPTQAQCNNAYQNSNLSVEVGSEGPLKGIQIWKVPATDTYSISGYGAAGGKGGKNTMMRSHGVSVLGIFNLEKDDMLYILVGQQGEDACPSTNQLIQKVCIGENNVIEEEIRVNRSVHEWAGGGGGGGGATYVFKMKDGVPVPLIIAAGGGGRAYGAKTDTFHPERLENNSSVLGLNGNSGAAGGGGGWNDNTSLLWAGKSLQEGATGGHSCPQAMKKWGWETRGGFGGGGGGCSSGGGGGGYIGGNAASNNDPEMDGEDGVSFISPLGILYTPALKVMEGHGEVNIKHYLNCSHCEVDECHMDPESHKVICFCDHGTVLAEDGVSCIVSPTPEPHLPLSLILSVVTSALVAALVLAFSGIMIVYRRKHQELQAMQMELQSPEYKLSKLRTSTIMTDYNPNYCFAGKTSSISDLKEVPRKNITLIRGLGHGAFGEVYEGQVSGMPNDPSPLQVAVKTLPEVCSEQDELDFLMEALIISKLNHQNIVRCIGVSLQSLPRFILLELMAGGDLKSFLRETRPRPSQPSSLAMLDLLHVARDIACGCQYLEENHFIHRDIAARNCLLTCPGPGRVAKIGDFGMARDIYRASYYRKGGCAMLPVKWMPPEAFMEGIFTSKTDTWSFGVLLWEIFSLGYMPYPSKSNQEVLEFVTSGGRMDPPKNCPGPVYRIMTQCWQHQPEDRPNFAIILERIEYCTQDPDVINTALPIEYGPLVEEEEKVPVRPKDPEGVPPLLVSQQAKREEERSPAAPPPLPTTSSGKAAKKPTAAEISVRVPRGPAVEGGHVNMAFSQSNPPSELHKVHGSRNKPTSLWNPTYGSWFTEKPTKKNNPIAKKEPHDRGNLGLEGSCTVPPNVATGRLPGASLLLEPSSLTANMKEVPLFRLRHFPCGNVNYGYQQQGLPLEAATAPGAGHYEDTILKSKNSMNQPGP
T4 sequence (P16234 24-1089 D842V): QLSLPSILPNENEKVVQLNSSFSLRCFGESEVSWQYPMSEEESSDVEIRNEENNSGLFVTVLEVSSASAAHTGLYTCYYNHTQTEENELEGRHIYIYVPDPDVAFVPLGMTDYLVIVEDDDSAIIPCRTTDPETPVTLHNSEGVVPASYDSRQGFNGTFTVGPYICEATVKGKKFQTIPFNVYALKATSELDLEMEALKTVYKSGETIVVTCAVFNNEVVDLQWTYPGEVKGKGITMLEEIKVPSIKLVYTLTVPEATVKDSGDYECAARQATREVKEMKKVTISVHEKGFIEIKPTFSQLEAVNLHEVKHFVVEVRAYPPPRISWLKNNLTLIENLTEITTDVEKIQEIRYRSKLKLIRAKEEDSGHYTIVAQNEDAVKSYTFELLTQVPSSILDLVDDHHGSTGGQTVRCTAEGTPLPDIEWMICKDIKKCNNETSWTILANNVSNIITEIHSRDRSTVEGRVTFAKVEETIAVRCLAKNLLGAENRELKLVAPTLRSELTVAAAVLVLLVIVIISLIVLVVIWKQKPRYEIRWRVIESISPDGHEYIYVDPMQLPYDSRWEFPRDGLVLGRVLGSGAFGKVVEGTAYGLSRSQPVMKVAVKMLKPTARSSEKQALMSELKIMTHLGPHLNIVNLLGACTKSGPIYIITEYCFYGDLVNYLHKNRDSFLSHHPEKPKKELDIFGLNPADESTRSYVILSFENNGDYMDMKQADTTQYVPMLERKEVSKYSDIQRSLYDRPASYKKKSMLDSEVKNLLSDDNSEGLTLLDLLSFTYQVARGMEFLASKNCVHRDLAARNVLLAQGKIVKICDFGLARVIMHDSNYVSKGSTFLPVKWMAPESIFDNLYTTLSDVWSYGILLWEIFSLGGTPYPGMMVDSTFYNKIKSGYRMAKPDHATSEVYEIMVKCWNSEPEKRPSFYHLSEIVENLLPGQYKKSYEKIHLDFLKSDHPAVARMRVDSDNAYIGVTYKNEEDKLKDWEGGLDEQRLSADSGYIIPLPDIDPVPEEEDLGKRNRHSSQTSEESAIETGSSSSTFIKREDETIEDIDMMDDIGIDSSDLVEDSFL

| SMILES | remaining activity at 10 µM (382 unique human kinases [1]) | remaining activity at 10 µM (382 unique human kinases [2]) | remaining activity at 10 µM (382 unique human kinases [3]) | remaining activity at 10 µM (382 unique human kinases [4]) | remaining activity at 10 µM (382 unique human kinases [5]) | remaining activity at 10 µM (382 unique human kinases [6]) | % Enzyme Activity (relative to DMSO controls) (382 unique human kinases [3]) | % Enzyme Activity (relative to DMSO controls) (382 unique human kinases [4]) | % Enzyme Activity (relative to DMSO controls) (382 unique human kinases [5]) | % Enzyme Activity (relative to DMSO controls) (382 unique human kinases [6]) | % Enzyme Activity (relative to DMSO controls) (382 unique human kinases [1]) | % Enzyme Activity (relative to DMSO controls) (382 unique human kinases [2]) |
| --- | --- | --- | --- | --- | --- | --- | --- | --- | --- | --- | --- | --- |
| CC(C)c1cc(-c2n[nH]c(=O)n2-c2ccc3c(ccn3C)c2)c(O)cc1O [Ganetespib (STA9090)] | 84% | 63.6% |  |  |  |  |  |  |  |  |  |  |
| CC(C)c1cc(-c2n[nH]c(=O)n2-c2ccc3c(ccn3C)c2)c(O)cc1O [Ganetespib] |  |  | 90.9% | 76.2% | 126% | 106% |  |  |  |  |  |  |
| CCNC(=O)c1noc(-c2cc(C(C)C)c(O)cc2O)c1-c1ccc(CN2CCOCC2)cc1 [Luminespib] |  |  | 95.7% | 59.9% | 100% | 97.2% | 92.81% | 50.60% | 98.33% | 95.70% |  |  |
| CCNC(=O)c1noc(-c2cc(C(C)C)c(O)cc2O)c1-c1ccc(CN2CCOCC2)cc1 [Luminespib (AUY-922)] | 98.9% | 104% |  |  |  |  |  |  |  |  | 97.82% | 104.30% |
